Measurements as given in US11596639B2, “Substituted indole Mcl-1 inhibitors” (Vanderbilt University, priority 2016, dated 2023).
Where two headings read alike, the source gives them in different places.

Tests used:
[1] = biological target: Mcl-1 (Homo sapiens (Human), UniProt Q07820); assay: Fluorescence polarization anisotropy (FPA) competition assay, FITC-Bak or FITC-Bim BH3 peptide; assay type: binding; conditions: read-out: Ki for Inhibition of Mcl-1 by FPA assay
[2] = tested on: H929 human cancer cell lines; assay: Cellular viability / proliferation (Cell TiterGlo, 72 h); assay type: cell-based
Outline: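 Plating is at 1,000 cells/well in 10% FBS medium; after 24 h, compound is added as a 2-fold series starting at 50 μM with under 1% DMSO.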

[3] = Homo sapiens, NCI-H929, 72 h, read-out: GI50 on cellular proliferation of H929 human cancer cell lines, H929 cells, 72 h, Cell TiterGlo, 10% FBS

Mcl-1, sequence (Q07820 172-327): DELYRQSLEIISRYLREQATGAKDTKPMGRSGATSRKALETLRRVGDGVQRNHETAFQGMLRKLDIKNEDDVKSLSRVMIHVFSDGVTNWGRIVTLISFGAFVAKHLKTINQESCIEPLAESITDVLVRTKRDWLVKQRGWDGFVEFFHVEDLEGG

Cc1ccc(Cn2c(C(=O)O)cc3cccc(N4C[C@@H](C)n5c(c(CCCOc6cc(C)c(Cl)c(C)c6)c6ccc(Cl)c(-c7c(C)nn(C)c7C)c65)C4=O)c32)nc1 [Example 363, (R)-7-(7-Chloro-10-(3-(4-chloro-3,5-dimethylphenoxy)propyl)-4-methyl-1-oxo-6-(1,3,5-trimethyl-1H-pyrazol-4-yl)-3,4-dihydropyrazino[1,2-a]indol-2(1H)-yl)-1-((5-methylpyridin-2-yl)methyl)-1H-indole-2-carboxylic acid]
Ki [1]: 1.6 nM
GI50 [2, 3]: 1400 nM

Cc1cc(OCCCc2c3n(c4c(-c5c(C)nn(C)c5C)c(Cl)ccc24)[C@H](C)CN(c2ccc4c(c2)cc(C(=O)O)n4C)C3=O)cc(C)c1Cl [Example 114, (R)-5-(7-Chloro-10-(3-(4-chloro-3,5-dimethylphenoxy)propyl)-4-methyl-1-oxo-6-(1,3,5-trimethyl-1H-pyrazol-4-yl)-3,4-dihydropyrazino[1,2-a]indol-2(1H)-yl)-1-methyl-1H-indole-2-carboxylic acid]
Ki [1]: < 1 nM
GI50 [2, 3]: 840 nM

(R)-4-(7-chloro-10-(3-(4-chloro-3,5-dimethylphenoxy)propyl)-4-methyl-1-oxo-6-(1,3,5-trimethyl-1H-pyrazol-4-yl)-3,4-dihydropyrazino[1,2-a]indol-2(1H)-yl)-2-methyl-2H-indazole-1-carboxylic acid [Example 97]
Ki [1]: < 1 nM
GI50 ([2]; H929 cells, 72 h, Cell TiterGlo, 10% FBS, read-out: GI50 on cellular proliferation of H929 human cancer cell lines): 3400 nM

Cc1cc(OCCCc2c3n(c4c(-c5c(C)nn(C)c5C)c(Cl)ccc24)[C@H](C)CN(c2ccc4cc(C(=O)O)n(C)c4c2)C3=O)cc(C)c1Cl [Example 110, (R)-6-(7-Chloro-10-(3-(4-chloro-3,5-dimethylphenoxy)propyl)-4-methyl-1-oxo-6-(1,3,5-trimethyl-1H-pyrazol-4-yl)-3,4-dihydropyrazino[1,2-a]indol-2(1H)-yl)-1-methyl-1H-indole-2-carboxylic acid]
Ki [1]: < 1 nM
GI50 [2, 3]: 790 nM

Cc1cc(OCCCc2c3n(c4c(-c5c(C)nn(C)c5C)c(Cl)ccc24)[C@H](C)CN(c2cc(C(=O)O)c4cnn(C)c4c2)C3=O)cc(C)c1Cl [Example 53, (R)-6-(7-chloro-10-(3-(4-chloro-3,5-dimethylphenoxy)propyl)-4-methyl-1-oxo-6-(1,3,5-trimethyl-1H-pyrazol-4-yl)-3,4-dihydropyrazino[1,2-a]indol-2(1H)-yl)-1-methyl-1H-indazole-4-carboxylic acid]
Ki [1]: < 1 nM
GI50 [2, 3]: 500 nM

Cc1cc(OCCCc2c3n(c4c(-c5c(C)nn(C)c5C)c(Cl)ccc24)[C@H](C)CN(c2cn(C)c4ccc(C5=NCCO5)cc24)C3=O)cc(C)c1Cl [Example 428, (R)-7-Chloro-10-(3-(4-chloro-3,5-dimethylphenoxy)propyl)-2-(5-(4,5-dihydrooxazol-2-yl)-1-methyl-1H-indol-3-yl)-4-methyl-6-(1,3,5-trimethyl-1H-pyrazol-4-yl)-3,4-dihydropyrazino[1,2-a]indol-1(2H)-one]
Ki [1]: 2 nM
GI50 [2, 3]: 920 nM

Cc1cc(OCCCc2c3n(c4c(-c5c(C)nn(C)c5C)c(Cl)ccc24)[C@H](C)CN(c2cn(C)c4cccc(C(=O)O)c24)C3=O)cc(C)c1Cl [Example 106, (R)-3-(7-Chloro-10-(3-(4-chloro-3,5-dimethylphenoxy)propyl)-4-methyl-1-oxo-6-(1,3,5-trimethyl-1H-pyrazol-4-yl)-3,4-dihydropyrazino[1,2-a]indol-2(1H)-yl)-1-methyl-1H-indole-4-carboxylic acid]
Ki [1]: < 1 nM
GI50 [2, 3]: 790 nM

Cc1cc(N2C[C@@H](C)n3c(c(CCCOc4cc(C)c(Cl)c(C)c4)c4ccc(Cl)c(-c5c(C)nn(C)c5C)c43)C2=O)c2c(c1)cc(C(=O)O)n2CC1CCN(C)C1 (stereo partly drawn) [Example 330, 7-((R)-7-Chloro-10-(3-(4-chloro-3,5-dimethylphenoxy)propyl)-4-methyl-1-oxo-6-(1,3,5-trimethyl-1H-pyrazol-4-yl)-3,4-dihydropyrazino[1,2-a]indol-2(1H)-yl)-5-methyl-1-((1-methylpyrrolidin-3-yl)methyl)-1H-indole-2-carboxylic acid]
Ki [1]: 1.3 nM
GI50 [2, 3]: 2300 nM

CCn1cc2cc(C(=O)O)cc(N3CCCn4c(c(CCCOc5cc(C)c(Cl)c(C)c5)c5ccc(Cl)c(-c6c(C)nn(C)c6C)c54)C3=O)c2n1 [Example 124, 7-(8-chloro-11-(3-(4-chloro-3,5-dimethylphenoxy)propyl)-1-oxo-7-(1,3,5-trimethyl-1H-pyrazol-4-yl)-4,5-dihydro-1H-[1,4]diazepino[1,2-a]indol-2(3H)-yl)-2-ethyl-2H-indazole-5-carboxylic acid]
Ki [1]: < 1 nM
GI50 [2, 3]: 1900 nM

Cc1cc(OCCCc2c3n(c4c(-c5c(C)ncnc5C)c(Cl)ccc24)[C@H](C)CN(c2cccc4c2cc(C(=O)O)n4C)C3=O)cc(C)c1Cl [Example 210, 4-[(4R)-7-chloro-10-[3-(4-chloro-3,5-dimethyl-phenoxy)propyl]-6-(4,6-dimethylpyrimidin-5-yl)-4-methyl-1-oxo-3,4-dihydropyrazino[1,2-a]indol-2-yl]-1-methyl-indole-2-carboxylic acid]
Ki [1]: 1.3 nM
GI50 [2, 3]: 1500 nM

Cc1cc(OCCCc2c3n(c4c(-c5c(C)nn(C)c5C)c(Cl)ccc24)[C@H](C)CN(c2cc4c(C(=O)O)cccc4n2C)C3=O)cc(C)c1Cl [Example 170, 2-[(4R)-7-chloro-10-[3-(4-chloro-3,5-dimethyl-phenoxy)propyl]-4-methyl-1-oxo-6-(1,3,5-trimethylpyrazol-4-yl)-3,4-dihydropyrazino[1,2-a]indol-2-yl]-1-methyl-indole-4-carboxylic acid]
Ki [1]: 2.7 nM
GI50 [2, 3]: 2600 nM

Cc1cc(OCCCc2c3n(c4c(-c5c(C)nn(C)c5C)c(Cl)ccc24)[C@H](C)CN(c2nc(C(=O)O)c4ccccn24)C3=O)cc(C)c1Cl [Example 111, (R)-3-(7-chloro-10-(3-(4-chloro-3,5-dimethylphenoxy)propyl)-4-methyl-1-oxo-6-(1,3,5-trimethyl-1H-pyrazol-4-yl)-3,4-dihydropyrazino[1,2-a]indol-2(1H)-yl)imidazo[1,5-a]pyridine-1-carboxylic acid]
Ki [1]: < 1 nM
GI50 [2, 3]: 2600 nM

Cc1cc(OCCCc2c3n(c4c(-c5c(C)nn(C)c5C)c(Cl)ccc24)[C@H](C)CN(c2cn(C)c4ccc(-c5n[nH]c(=O)o5)cc24)C3=O)cc(C)c1Cl [Example 444, (R)-5-(3-(7-Chloro-10-(3-(4-chloro-3,5-dimethylphenoxy)propyl)-4-methyl-1-oxo-6-(1,3,5-trimethyl-1H-pyrazol-4-yl)-3,4-dihydropyrazino[1,2-a]indol-2(1H)-yl)-1-methyl-1H-indol-5-yl)-1,3,4-oxadiazol-2(3H)-one]
Ki [1]: 1.3 nM
GI50 [2, 3]: 220 nM

Cc1cc(OCCCc2c3n(c4c(-c5c(C)nn(C)c5C)c(Cl)ccc24)CCCN(c2nn(CCN4CCOCC4)c4cc(C(=O)O)ccc24)C3=O)cc(C)c1Cl [Example 49, 3-(8-chloro-11-(3-(4-chloro-3,5-dimethylphenoxy)propyl)-1-oxo-7-(1,3,5-trimethyl-1H-pyrazol-4-yl)-4,5-dihydro-1H-[1,4]diazepino[1,2-a]indol-2(3H)-yl)-1-(2-morpholinoethyl)-1H-indazole-6-carboxylic acid]
Ki [1]: < 1 nM
GI50 [2, 3]: 2600 nM

Cc1cc(OCCCc2c3n(c4c(-c5c(C)nn(C)c5C)c(Cl)ccc24)[C@H](C)CN(c2cccc4c(C(=O)O)cn(Cc5ccccn5)c24)C3=O)cc(C)c1Cl [Example 468, (R)-7-(7-Chloro-10-(3-(4-chloro-3,5-dimethylphenoxy)propyl)-4-methyl-1-oxo-6-(1,3,5-trimethyl-1H-pyrazol-4-yl)-3,4-dihydropyrazino[1,2-a]indol-2(1H)-yl)-1-(pyridin-2-ylmethyl)-1H-indole-3-carboxylic acid]
Ki [1]: < 1 nM
GI50 [2, 3]: 260 nM

Cc1nc(Cn2c(C(=O)O)cc3cccc(N4C[C@@H](C)n5c(c(CCCOc6cc(C)c(Cl)c(C)c6)c6ccc(Cl)c(-c7c(C)nn(C)c7C)c65)C4=O)c32)no1 [Example 314, 7-[(4R)-7-chloro-10-[3-(4-chloro-3,5-dimethyl-phenoxy)propyl]-4-methyl-1-oxo-6-(1,3,5-trimethylpyrazol-4-yl)-3,4-dihydropyrazino[1,2-a]indol-2-yl]-1-[(5-methyl-1,2,4-oxadiazol-3-yl)methyl]indole-2-carboxylic acid]
Ki [1]: < 1 nM
GI50 [2, 3]: 930 nM

Cc1cc(OCCCc2c3n(c4c(-c5c(C)nc(CN(C)CCN(C)C)nc5C)c(Cl)ccc24)[C@H](C)CN(c2cn(C)c4ccc(C(=O)O)cc24)C3=O)cc(C)c1Cl [Example 448, (R)-3-(7-Chloro-10-(3-(4-chloro-3,5-dimethylphenoxy)propyl)-6-(2-(((2-(dimethylamino)ethyl)(methyl)amino)methyl)-4,6-dimethylpyrimidin-5-yl)-4-methyl-1-oxo-3,4-dihydropyrazino[1,2-a]indol-2(1H)-yl)-1-methyl-1H-indole-5-carboxylic acid]
Ki [1]: 2.2 nM
GI50 [2, 3]: 360 nM

Cc1cc(OCCCc2c3n(c4c(-c5c(C)nn(C)c5C)c(Cl)ccc24)[C@H](C)CN(c2cn(C)c4ccc(C(=O)Nc5cccnc5)cc24)C3=O)cc(C)c1Cl [Example 291, 3-[(4R)-7-chloro-10-[3-(4-chloro-3,5-dimethyl-phenoxy)propyl]-4-methyl-1-oxo-6-(1,3,5-trimethylpyrazol-4-yl)-3,4-dihydropyrazino[1,2-a]indol-2-yl]-1-methyl-N-(3-pyridyl)indole-5-carboxamide]
Ki [1]: 1.1 nM
GI50 [2, 3]: 1000 nM

Cc1cc(N2C[C@@H](C)n3c(c(CCCOc4cc(C)c(Cl)c(C)c4)c4ccc(Cl)c(-c5c(C)nn(C)c5C)c43)C2=O)c2cc(C(=O)O)n(C)c2c1 [Example 317, (R)-4-(7-Chloro-10-(3-(4-chloro-3,5-dimethylphenoxy)propyl)-4-methyl-1-oxo-6-(1,3,5-trimethyl-1H-pyrazol-4-yl)-3,4-dihydropyrazino[1,2-a]indol-2(1H)-yl)-1,6-dimethyl-1H-indole-2-carboxylic acid]
Ki [1]: < 1 nM
GI50 [2, 3]: 720 nM
